# Source: ChEMBL document CHEMBL4616630, “Amide-Iminoate Isomerism in Antineuroinflammatory Isoquinoline Alkaloids from Stephania cepharantha” (J Nat Prod, 2020)
# Test system: BV-2
# Test: Ant-inflammatory LPS-induced mouse BV2 cells assessed as reduction in NO production after 24 hrs by Griess reagent based assay
# Format: functional, cell-based
# Conditions: BV-2, 24 h
row,SMILES,IC50 [µM]
1,COC1=C2[C@H]3Cc4ccc(OC)c(O)c4[C@]2(CCN3C=O)C[C@H](O)[C@@H]1O,37.3
2,COC1=C2[C@H]3Cc4ccc(OC)c(O)c4[C@]2(CCN3C=O)C[C@H](O)[C@@H]1OC(C)=O,> 100
3,COc1cc2c3c(c1OC)C1(C=CC(=O)C=C1)C[C@H]3N(C=O)CC2,> 100
4,COc1ccc2cc1Oc1ccc(cc1)C[C@H]1c3c(cc4c(c3Oc3cc5c(cc3OC)CCN(C=O)[C@@H]5C2)OCO4)CCN1C,12
5,O=CN1CCc2cc3c(c4c2[C@H]1Cc1cc(O)ccc1-4)OCO3,> 100
6,COC1=C2[C@H]3Cc4ccc(OC)c(O)c4[C@]2(CCN3C=O)C[C@H](OC(C)=O)[C@@H]1O,> 100
7,COC1=C2[C@H]3Cc4ccc(OC)c(O)c4[C@]2(CCN3C=O)C[C@H](OC(C)=O)[C@@H]1OC(C)=O,> 100
8,COc1ccc2cc1Oc1ccc(cc1)C[C@H]1c3cc(c(OC)cc3CCN1C=O)Oc1c(OC)c(OC)cc3c1[C@@H](C2)N(C)CC3,12.6
9,CN(C)c1ccc(O)c2c1C[C@H]1C[C@H]3[C@H](N(C)C)C(O)=C(C(N)=O)C(=O)[C@@]3(O)C(O)=C1C2=O [MINOCYCLINE],17.5
